In patent US20250017940A1, “SELECTIVE PEPTIDOMIMETIC MODULATORS OF CAV2.2 (N-TYPE) VOLTAGE-GATED CALCIUM CHANNELS AND USES THEREOF” (New York University, priority 2023, published 2025):

Key:
total Ca2+ currents = assay: Whole-cell patch-clamp, total Ca2+ currents in small-to-medium DRG neurons; format: cell-based, rat; settings: 20 μM overnight; normalized to 0.1% DMSO control (1.00±0.06)
Method: Recordings were obtained from acutely dissociated DRG neurons as described earlier (Bellampalli et al., 2019). Patch-clamp recordings were performed at room temperature (22-24° C.). Currents were recorded using an EPC 10 Amplifier-HEKA (HEKA Elektronik, Ludwigshafen, Germany) linked to a computer with Patchmaster software. DRG neurons were incubated overnight (˜16-24 hours) with 20 μM of CBD3063.
For total calcium current (ICa^2+) recordings, the external solution consisted of the following (in mM): 110 N-methyl-D-glucamine, 10 BaCl2, 30 TEA-Cl, 10 HEPES, 10 glucose, and 0.001 TTX (pH 7.29 adjusted with TEA-OH, and mOsm/L=310). Patch pipettes were filled with an internal solution containing (in mM): 150 CsCl2, 10 HEPES, 5 Mg-ATP, and 5 BAPTA, (pH 7.2 adjusted with CsOH, and mOsm/L-305). Peak Ca^2+ current was acquired by applying 200-millisecond voltage steps from −70 to +60 mV in 10-mV increments from a holding potential of −90 mV to obtain the current-voltage (I-V) relation. To measure the different subtypes of Ca^2+ channels, DRGs were treated with a Cav inhibitor cocktail omitting the inhibitor specific to the subtype being tested (e.g., to measure Cav2.2 currents, ω-conotoxin GVIA is omitted): Nifedipine (10 μM, L-type), ω-Conotoxin-GVIA (500 nM, […]) (Feng, et al., 2001), SNX482 (200 nM, R-type) (Newcomb et al., 1998), ω-agatoxin (200 nM, P/Q-type) (Mintz et al., 1992), TTA-P2 (1 μM, T-type) (Choe et al., 2011).
Normalization of currents to each cell's capacitance (pF) was performed to allow for collection of current density data. For I-V curves, functions were fitted to data using a non-linear least squares analysis. I-V curves were fitted using double Boltzmann functions:
where x is the pre-pulse potential, V1/2 is the mid-point potential, and k is the corresponding slope factor for single Boltzmann functions. Double Boltzmann fits were used to describe the shape of the curve, not to imply the existence of separate channel populations. Numbers 1 and 2 simply indicate first and second mid-points; a along with g are fitting parameters.
Activation curves were obtained from the I-V curves by dividing the peak current at each depolarizing step by the driving force according to the equation: G=I/(Vmem-Erev), where I is the peak current, Vmem is the membrane potential and Erev is the reversal potential. The conductance (G) was normalized against the maximum conductance (Gmax). For total and the different subtypes of Ca^2+ currents, steady-state inactivation (SSI) curves were obtained by applying an H-infinity protocol that consisted of 1.5-seconds conditioning pre-pulses from −100 to +30 mV in 10-mV increments followed by a 20-millisecond test pulse to +10 mV. For Na^+ currents, SSI curves were obtained by applying an H-infinity protocol that consisted of 1-second conditioning pre-pulses from −120 to +10 mV in 10-mV increments followed by a 200-millisecond test pulse to +10 mV. Inactivation curves were obtained by dividing the peak current recorded at the test pulse by the maximum current (Imax). Activation and SSI curves were fitted with the Boltzmann equation.

[1] = Preliminary tests of analgesic properties

Row | SMILES | normalized peak total ICa2+ density (total Ca2+ currents) | analgesic properties [1]
1 | COc1ccccc1CNC(=N)NCCCN1Cc2ccccc2C1 [CBD3074, N-[3-(1,3-dihydroisoindol-2-yl)propyl]-N′-[(2-methoxyphenyl)methyl]guanidine] | 0.58±0.06 ratio to DMSO control | –
2 | N=C(NCCCN1CCc2ccccc2C1)NCc1ccccc1 [CBD3065, N′-benzyl-N-[3-(3,4-dihydro-1H-isoquinolin-2-yl)propyl]guanidine] | 0.52±0.07 ratio to DMSO control | did not exhibit analgesic properties
